In the supplement of paper PMC10307832:

Legend:
Experiment in all cases: relative viability (nuclei count vs DMSO), 5 days (fraction); higher = more cells survive
BEN = tested on: BEN
In short: (§1)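 Lung cancer cell lines were seeded in 1536-well plates and dosed by pin tool the next day, with either a single drug or a fixed anchor-drug dose combined with five library-drug doses (not always all listed) spaced in √10 steps. Five days later, one step fixed the cells and stained their nuclei (final 0.05% Triton X-100, 1% formaldehyde, 1 ug/ml Hoechst), and nuclei were counted on 4× images. Relative viability is the nuclei count in treated wells divided by the count in vehicle wells, and each value is the median of duplicate plates.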

H3255 = tested on: H3255
In short: as §1

HCC-15 = tested on: HCC-15
In short: as §1

HCC-78 = tested on: HCC-78
In short: as §1

LC-2-ad = tested on: LC-2-ad
In short: as §1

LCLC-97TM1 = tested on: LCLC-97TM1
In short: as §1

LK-2 = tested on: LK-2
In short: as §1

LU99A = tested on: LU99A
In short: as §1

LXF-289 = tested on: LXF-289
In short: as §1

NCI-H1651 = tested on: NCI-H1651
In short: as §1

NCI-H1666 = tested on: NCI-H1666
In short: as §1

NCI-H1944 = tested on: NCI-H1944
In short: as §1

NCI-H2087 = tested on: NCI-H2087
In short: as §1

NCI-H322M = tested on: NCI-H322M
In short: as §1

NCI-H358 = tested on: NCI-H358
In short: as §1

NCI-H596 = tested on: NCI-H596
In short: as §1

NCI-H650 = tested on: NCI-H650
In short: as §1

NCI-H661 = tested on: NCI-H661
In short: as §1

NCI-H838 = tested on: NCI-H838
In short: as §1

PC-3 [JPC-3] = tested on: PC-3 [JPC-3]
In short: as §1

SK-MES-1 = tested on: SK-MES-1
In short: as §1

UMC-11 = tested on: UMC-11
In short: as §1

What does the source list for `Clc1ccc(Nc2nnc(Cc3ccncc3)c3ccccc23)cc1` [Vatalanib] + Cc1nc(NC(=O)N2CCC[C@H]2C(N)=O)sc1-c1ccnc(C(C)(C)C(F)(F)F)c1 [Alpelisib] (partner 2 µM)?
relative viability (BEN; first compound 0.04 µM): 1.05; relative viability (BEN; first compound 0.1265 µM): 0.945; relative viability (BEN; first compound 0.4 µM): 1.09; relative viability (BEN; first compound 1.265 µM): 1.18; relative viability (BEN; first compound 4 µM): 1.04; relative viability (H3255; first compound 0.04 µM): 0.649; relative viability (H3255; first compound 0.1265 µM): 0.666; relative viability (H3255; first compound 0.4 µM): 0.514; relative viability (H3255; first compound 1.265 µM): 0.705; relative viability (H3255; first compound 4 µM): 0.618; relative viability (HCC-15; first compound 0.04 µM): 0.893; relative viability (HCC-15; first compound 0.1265 µM): 0.884; relative viability (HCC-15; first compound 0.4 µM): 0.918; relative viability (HCC-15; first compound 1.265 µM): 0.916; relative viability (HCC-15; first compound 4 µM): 0.937; relative viability (HCC-78; first compound 0.04 µM): 0.255; relative viability (HCC-78; first compound 0.1265 µM): 0.346; relative viability (HCC-78; first compound 0.4 µM): 0.277; relative viability (HCC-78; first compound 4 µM): 0.323; relative viability (LC-2-ad; first compound 0.04 µM): 0.86; relative viability (LC-2-ad; first compound 0.1265 µM): 0.847; relative viability (LC-2-ad; first compound 0.4 µM): 0.988; relative viability (LC-2-ad; first compound 1.265 µM): 0.825; relative viability (LC-2-ad; first compound 4 µM): 0.867; relative viability (LCLC-97TM1; first compound 0.04 µM): 0.248; relative viability (LCLC-97TM1; first compound 0.1265 µM): 0.2; relative viability (LCLC-97TM1; first compound 0.4 µM): 0.262; relative viability (LCLC-97TM1; first compound 1.265 µM): 0.178; relative viability (LCLC-97TM1; first compound 4 µM): 0.353; relative viability (LK-2; first compound 0.04 µM): 0.951; relative viability (LK-2; first compound 0.1265 µM): 0.999; relative viability (LK-2; first compound 1.265 µM): 1.07; relative viability (LK-2; first compound 4 µM): 1.24; relative viability (LU99A; first compound 0.04 µM): 0.541; relative viability (LU99A; first compound 0.1265 µM): 0.514; relative viability (LU99A; first compound 0.4 µM): 0.531; relative viability (LU99A; first compound 1.265 µM): 0.503; relative viability (LU99A; first compound 4 µM): 0.575; relative viability (LXF-289; first compound 0.04 µM): 1.08; relative viability (LXF-289; first compound 0.1265 µM): 1.01; relative viability (LXF-289; first compound 0.4 µM): 1.06; relative viability (LXF-289; first compound 1.265 µM): 0.964; relative viability (LXF-289; first compound 4 µM): 0.995; relative viability (NCI-H1651; first compound 0.04 µM): 0.869; relative viability (NCI-H1651; first compound 0.1265 µM): 0.863; relative viability (NCI-H1651; first compound 0.4 µM): 0.968; relative viability (NCI-H1651; first compound 1.265 µM): 0.894; relative viability (NCI-H1651; first compound 4 µM): 0.929; relative viability (NCI-H1666; first compound 0.04 µM): 1.23; relative viability (NCI-H1666; first compound 0.1265 µM): 0.934; relative viability (NCI-H1666; first compound 0.4 µM): 0.978; relative viability (NCI-H1666; first compound 1.265 µM): 0.996; relative viability (NCI-H1666; first compound 4 µM): 0.941; relative viability (NCI-H1944; first compound 0.04 µM): 0.888; relative viability (NCI-H1944; first compound 0.1265 µM): 0.706; relative viability (NCI-H1944; first compound 0.4 µM): 0.833; relative viability (NCI-H1944; first compound 1.265 µM): 0.808; relative viability (NCI-H1944; first compound 4 µM): 0.864; relative viability (NCI-H2087; first compound 0.04 µM): 1.1; relative viability (NCI-H2087; first compound 0.1265 µM): 0.96; relative viability (NCI-H2087; first compound 0.4 µM): 1.3; relative viability (NCI-H2087; first compound 1.265 µM): 0.964; relative viability (NCI-H2087; first compound 4 µM): 1.1; relative viability (NCI-H322M; first compound 0.04 µM): 0.775; relative viability (NCI-H322M; first compound 0.1265 µM): 0.709; relative viability (NCI-H322M; first compound 0.4 µM): 0.75; relative viability (NCI-H322M; first compound 1.265 µM): 0.782; relative viability (NCI-H322M; first compound 4 µM): 0.795; relative viability (NCI-H358; first compound 0.04 µM): 0.88; relative viability (NCI-H358; first compound 0.1265 µM): 0.741; relative viability (NCI-H358; first compound 0.4 µM): 1.09; relative viability (NCI-H358; first compound 1.265 µM): 0.824; relative viability (NCI-H358; first compound 4 µM): 0.876; relative viability (NCI-H596; first compound 0.04 µM): 0.503; relative viability (NCI-H596; first compound 0.1265 µM): 0.499; relative viability (NCI-H596; first compound 0.4 µM): 0.498; relative viability (NCI-H596; first compound 1.265 µM): 0.53; relative viability (NCI-H596; first compound 4 µM): 0.511; relative viability (NCI-H650; first compound 0.04 µM): 1.24; relative viability (NCI-H650; first compound 0.1265 µM): 0.936; relative viability (NCI-H650; first compound 1.265 µM): 1.06; relative viability (NCI-H650; first compound 4 µM): 1.13; relative viability (NCI-H661; first compound 0.04 µM): 0.617; relative viability (NCI-H661; first compound 0.1265 µM): 0.557; relative viability (NCI-H661; first compound 0.4 µM): 0.717; relative viability (NCI-H661; first compound 1.265 µM): 0.653; relative viability (NCI-H661; first compound 4 µM): 0.519; relative viability (NCI-H838; first compound 0.04 µM): 0.975; relative viability (NCI-H838; first compound 0.1265 µM): 1.07; relative viability (NCI-H838; first compound 0.4 µM): 1.06; relative viability (NCI-H838; first compound 1.265 µM): 0.864; relative viability (NCI-H838; first compound 4 µM): 0.985; relative viability (PC-3 [JPC-3]; first compound 0.04 µM): 1.01; relative viability (PC-3 [JPC-3]; first compound 0.1265 µM): 0.972; relative viability (PC-3 [JPC-3]; first compound 0.4 µM): 1.01; relative viability (PC-3 [JPC-3]; first compound 1.265 µM): 0.941; relative viability (PC-3 [JPC-3]; first compound 4 µM): 1.01; relative viability (SK-MES-1; first compound 0.04 µM): 1.11; relative viability (SK-MES-1; first compound 0.1265 µM): 0.849; relative viability (SK-MES-1; first compound 0.4 µM): 0.912; relative viability (SK-MES-1; first compound 1.265 µM): 0.807; relative viability (SK-MES-1; first compound 4 µM): 0.868; relative viability (UMC-11; first compound 0.04 µM): 0.913; relative viability (UMC-11; first compound 0.1265 µM): 0.932; relative viability (UMC-11; first compound 0.4 µM): 0.816; relative viability (UMC-11; first compound 1.265 µM): 0.979; relative viability (UMC-11; first compound 4 µM): 1.07
